Measurements as given in ChEMBL document CHEMBL5584334, “Discovery of a Covalent Inhibitor of Pro-Caspase-1 Zymogen Blocking NLRP3 Inflammasome Activation and Pyroptosis” (J Med Chem, 2024).
The source made the active and inactive calls.

Columns and labels:
THP-1 [1] = experiment: Effect on pro-1L-1beta protein expression in LPS/nigericin stimulated human THP-1 cells supernatant at 0.5 to 2 uM by Western blotting analysis; type: functional, cell-based; details: dose 0.5-2 µM
[2] = target: NACHT, LRR and PYD domains-containing protein 3 (Mus musculus) (UniProt Q8R4B8); experiment: Inhibition of NLRP3 inflammasome activation in LPS primed Casp1 knockout mouse BMDM cells transfected with caspase-1 C395A mutant assessed as reduction in IL-1beta release at 2 uM preincubated for 30 mins followed by nigericin stimulation; type: cell-based
NACHT, LRR and PYD domains-containing protein 3 (Mus musculus), sequence (Q8R4B8 whole entry, the tested form may be a part): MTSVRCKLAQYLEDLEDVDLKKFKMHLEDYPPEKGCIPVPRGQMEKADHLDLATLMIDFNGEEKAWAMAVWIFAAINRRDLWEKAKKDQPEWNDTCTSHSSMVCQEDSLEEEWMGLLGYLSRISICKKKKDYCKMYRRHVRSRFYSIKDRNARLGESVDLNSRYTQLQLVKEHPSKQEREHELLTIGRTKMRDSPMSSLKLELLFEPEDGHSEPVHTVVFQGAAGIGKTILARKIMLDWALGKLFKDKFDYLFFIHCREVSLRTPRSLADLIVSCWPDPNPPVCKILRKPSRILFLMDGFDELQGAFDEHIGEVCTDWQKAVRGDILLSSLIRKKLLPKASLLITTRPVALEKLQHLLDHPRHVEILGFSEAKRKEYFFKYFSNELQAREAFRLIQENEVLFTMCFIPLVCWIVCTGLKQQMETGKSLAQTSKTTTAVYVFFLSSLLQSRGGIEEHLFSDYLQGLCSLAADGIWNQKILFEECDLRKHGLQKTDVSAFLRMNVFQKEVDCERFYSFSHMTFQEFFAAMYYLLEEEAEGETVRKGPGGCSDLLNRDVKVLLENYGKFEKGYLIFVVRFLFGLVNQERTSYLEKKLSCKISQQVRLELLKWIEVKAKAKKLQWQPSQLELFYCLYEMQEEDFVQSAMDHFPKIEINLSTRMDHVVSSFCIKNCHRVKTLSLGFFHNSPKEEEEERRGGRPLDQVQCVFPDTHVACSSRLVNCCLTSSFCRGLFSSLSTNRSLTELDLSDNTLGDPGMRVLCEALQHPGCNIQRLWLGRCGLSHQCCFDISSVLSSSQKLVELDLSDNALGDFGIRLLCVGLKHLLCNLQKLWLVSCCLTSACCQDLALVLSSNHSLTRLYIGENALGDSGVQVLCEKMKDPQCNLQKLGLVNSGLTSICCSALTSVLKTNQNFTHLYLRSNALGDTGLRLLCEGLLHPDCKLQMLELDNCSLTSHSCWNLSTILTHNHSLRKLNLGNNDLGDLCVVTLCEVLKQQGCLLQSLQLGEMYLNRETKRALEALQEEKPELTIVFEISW

THP-1 [3] = experiment: Effect on pro-1L-1beta protein expression in LPS/ATP stimulated human THP-1 cells supernatant by Western blotting analysis; type: functional, cell-based
[4] = target: NACHT, LRR and PYD domains-containing protein 3 (Mus musculus) (UniProt Q8R4B8); experiment: Inhibition of NLRP3 inflammasome activation in LPS/MSU stimulated mouse J774.A1 cells assessed as reduction in IL-1beta production incubated for 4 hrs by ELISA; type: cell-based
Mus musculus [5] = experiment: (§1) Anti-inflammatory activity in MSU/C18:0 free fatty acid induced Kunming mouse model of gouty arthritis assessed as reduction in joint swelling at 5 to 20 mg/kg, ip preadministered with compound for 30 mins followed by MSU/C18:0 free fatty acid injection and measured after 24 hrs; type: functional, organism-based; details: dose 5-20 mg/kg, time 24.5 hrs
J774.A1 [6] = experiment: Inhibition of pyroptosis in mouse J774.A1 cells assessed as reduction in caspase-1 to GSDMD interaction at 1 uM pretreated with LPS for 3 hrs followed by compound addition in presence of nigericin by immunoprecipitation analysis; type: functional, cell-based
[7] = tested on: Caspase-1 (Homo sapiens), P29466 [C285A]; experiment: Binding affinity to Flag-tagged caspase-1 C285A mutant (unknown origin) expressed in HEK293T cells by pull-down assay; type: cell-based; details: dose 2.0 µM
Caspase-1 (Homo sapiens), P29466 [C285A], sequence (P29466 whole entry C285A): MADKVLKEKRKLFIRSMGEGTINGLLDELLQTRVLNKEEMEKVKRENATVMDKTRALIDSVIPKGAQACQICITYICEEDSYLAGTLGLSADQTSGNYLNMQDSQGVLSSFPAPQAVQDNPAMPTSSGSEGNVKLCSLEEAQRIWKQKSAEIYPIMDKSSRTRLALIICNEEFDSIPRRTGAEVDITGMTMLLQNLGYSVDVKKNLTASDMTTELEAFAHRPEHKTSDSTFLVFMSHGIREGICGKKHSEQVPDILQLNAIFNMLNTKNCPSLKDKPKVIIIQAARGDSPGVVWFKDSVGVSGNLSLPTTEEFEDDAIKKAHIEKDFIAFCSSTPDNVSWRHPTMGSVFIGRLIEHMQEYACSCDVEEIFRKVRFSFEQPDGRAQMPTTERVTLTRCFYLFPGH

J774.A1 [8] = experiment: Cytotoxicity against mouse J774.A1 cells at 2 uM incubated for 1 to 12 hrs by CCK-8 method; type: toxicity, cell-based; details: j774.a1, 2 µM, time 1-12 hrs
THP-1 [9] = experiment: Inhibition of p20 fragment of IL-1beta protein expression in LPS/nigericin stimulated human THP-1 cells supernatant at 0.5 to 2 uM by Western blotting analysis; type: functional, cell-based; details: dose 0.5-2 µM
[10] = target: NACHT, LRR and PYD domains-containing protein 3 (Mus musculus) (UniProt Q8R4B8); experiment: Inhibition of NLRP3 inflammasome activation in mouse BMDMs assessed as reduction in IL-1beta production at 0.5 to 2 uM pretreated with pam3CSK4 for 3 hrs followed by compound addition for 30 mins prior to cytosolic LPS stimulation for 16 hrs by ELISA; type: cell-based; details: BMDM, dose 0.5-2 µM, time 16.5 hrs
Caspase-1 (Mus musculus) = target: T1, Caspase-1 (Mus musculus) (UniProt P29452); experiment: Irreversible binding affinity to caspase-1 in LPS-induced mouse J774.A1 cells assessed as reduction in IL-1beta level at 0.5 to 2 uM pretreated with LPS for 3 hrs followed by compound addition for 30 mins prior to compound washout then nigericin addition for 1 hr by ELISA; type: cell-based; details: dose 0.5-2 µM
T1 sequence (whole entry): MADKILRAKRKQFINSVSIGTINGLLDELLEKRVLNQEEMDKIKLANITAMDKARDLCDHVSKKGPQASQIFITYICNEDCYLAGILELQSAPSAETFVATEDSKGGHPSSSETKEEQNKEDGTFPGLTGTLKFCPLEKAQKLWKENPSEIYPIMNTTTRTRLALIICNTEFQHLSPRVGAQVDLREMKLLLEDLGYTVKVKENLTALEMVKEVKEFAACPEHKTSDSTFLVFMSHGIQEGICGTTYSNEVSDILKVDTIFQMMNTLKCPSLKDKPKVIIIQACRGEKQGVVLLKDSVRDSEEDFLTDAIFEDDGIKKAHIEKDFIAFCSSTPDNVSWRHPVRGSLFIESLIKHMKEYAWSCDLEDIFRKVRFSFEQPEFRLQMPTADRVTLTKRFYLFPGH

J774.A1 [11] = experiment: Effect on ASC oligomerization in mouse J774.A1 cells at 2 uM pretreated with LPS for 3 hrs prior to compound addition followed by nigericin stimulation; type: functional, cell-based
Mus musculus [12] = experiment: as §1, with “IL-1beta expression” for “in joint swelling”, “hrs by Western blotting analysis” for “hrs”; type: functional, organism-based; details: dose 5-20 mg/kg, time 24.5 hrs
J774.A1 [13] = experiment: Effect on ASC speck formation in mouse J774.A1 cells at 2 uM pretreated with LPS for 3 hrs prior to compound addition followed by nigericin stimulation; type: functional, cell-based
[14] = tested on: Caspase-1 (Homo sapiens), P29466 [C270A]; experiment: Binding affinity to recombinant caspase-1 C270A mutant (unknown origin) at 2 uM by SDS-PAGE analysis
Caspase-1 (Homo sapiens), P29466 [C270A], sequence (P29466 whole entry C270A): as the sequence (P29466 whole entry C285A) above, with C270A, A285C counted along it

Caspase-7 (Mus musculus) = target: T2, Caspase-7 (Mus musculus) (UniProt P97864); experiment: Inhibition of cisplatin induced caspase-7 activation in mouse J774.A1 cells at 2 uM preincubated for 30 mins followed by cisplatin addition and incubated overnight; type: cell-based
T2 sequence (whole entry): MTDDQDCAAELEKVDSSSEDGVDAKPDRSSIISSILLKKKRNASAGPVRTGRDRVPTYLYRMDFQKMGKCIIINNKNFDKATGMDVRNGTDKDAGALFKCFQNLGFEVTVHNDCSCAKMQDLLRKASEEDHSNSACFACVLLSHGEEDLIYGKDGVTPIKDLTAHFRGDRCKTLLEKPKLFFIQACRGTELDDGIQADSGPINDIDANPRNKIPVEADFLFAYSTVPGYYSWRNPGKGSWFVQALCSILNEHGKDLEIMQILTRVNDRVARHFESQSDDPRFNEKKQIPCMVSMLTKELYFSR

THP-1 [15] = experiment: Inhibition of p20 fragment of IL-1beta protein expression in LPS/MSU stimulated human THP-1 cells supernatant by Western blotting analysis; type: functional, cell-based
THP-1 [16] = experiment: Effect on pro-caspase 1 protein expression in LPS/MSU stimulated human THP-1 cells supernatant by Western blotting analysis; type: functional, cell-based
[17] = tested on: Caspase-1 (Homo sapiens), P29466 [C285A]; experiment: Binding affinity to recombinant caspase-1 C285A mutant (unknown origin) at 2 uM by SDS-PAGE analysis
HEK293T [18] = experiment: Inhibition of recombinant caspae-1 C244A mutant (unknown origin) to GSDMD (unknown origin) interaction expressed in HEK293T cells; type: cell-based; details: Homo sapiens
THP-1 [19] = experiment: Effect on pro-caspase-4 expression in human THP-1 cells at 2 uM pretreated with pam3CSK4 for 3 hrs followed by compound addition for 30 mins prior to cytosolic LPS stimulation for 16 hrs by ELISA; type: functional, cell-based; details: time 16.5 hrs
Mus musculus [20] = species: Mus musculus; experiment: Inhibition of pain perception in MSU/C18:0 free fatty acid induced wild type mouse measured upto 24 hrs; type: functional, organism-based
HEK293T [21] = experiment: Inhibition of recombinant caspae-1 C397A mutant (unknown origin) to GSDMD (unknown origin) interaction expressed in HEK293T cells; type: cell-based; details: Homo sapiens
[22] = target: NACHT, LRR and PYD domains-containing protein 3 (Mus musculus) (UniProt Q8R4B8); experiment: Inhibition of NLRP3 inflammasome activation in LPS/ATP stimulated mouse J774.A1 cells assessed as reduction in IL-1beta production incubated for 30 mins by ELISA; type: cell-based
[23] = Acute toxicity in Kunming mouse assessed as change in ALT level at 100 mg/kg, ip administered for 14 days; type: organism-based; details: in vivo, 336 h, time 14 day
[24] = target: NACHT, LRR and PYD domains-containing protein 3 (Mus musculus) (UniProt Q8R4B8); experiment: Inhibition of NLRP3 inflammasome activation in LPS/nigericin stimulated mouse J774.A1 cells assessed as reduction in IL-18 production pretreated with LPS for 3 hrs prior to compound addition for 30 mins followed by nigericin addition and measured after 45 mins by ELISA; type: cell-based; details: time 75.0 min

COc1ccc2c(c1)[C@]1(C=C[C@H](N=C=S)C[C@H]1C(=O)OC(C)(C)C)C(=O)N2C(=O)OCc1ccccc1
Non-Toxic: Activity (J774.A1 [8]) | Activity [23]
inactive: Activity (THP-1 [1]) | inhibition [2] | Activity (THP-1 [3]) | Activity [7] | inhibition (Caspase-7 (Mus musculus)) | Activity (THP-1 [16]) | Activity [17] | Activity (THP-1 [19]) | inhibition (HEK293T [21])
active: inhibition [4] | Activity (Mus musculus [5]) | inhibition (J774.A1 [6]) | inhibition (THP-1 [9]) | inhibition [10] | Activity (Caspase-1 (Mus musculus)) | inhibition (J774.A1 [11]) | Activity (Mus musculus [12]) | inhibition (J774.A1 [13]) | Activity [14] | inhibition (THP-1 [15]) | inhibition (HEK293T [18]) | inhibition (Mus musculus [20]) | inhibition [22] | inhibition [24] Dose-Dependent Effect
